Test system: HeLa, an HPV-18 positive human cervical cancer cell line
Assay: Cell proliferation and cell death, trypan blue exclusion, HeLa cells
Format: cell-based
Description: M4N in 10% (w/v) HP-β-CD and 25% (v/v) PEG 300 (hereafter, the “CPE formulation”), M4N in 30% (w/v) HP-β-CD and 25% (v/v) PEG 300 (hereafter, the “CPE 25/30 formulation”) and M4N in 27% (w/v) HP-β-CD and 33% (v/v) PEG 300 (hereafter, the “CPE 33/27 formulation”) was tested for their effects on cell death and proliferation on two different tumor cell lines: HeLa, an HPV-18 positive human cervical cancer cell line, and C-33A, an HPV-negative human cervical cancer cell line M4N in DMSO was also tested in parallel. Both tumor cell lines were treated with increasing amounts of M4N: 0 μM, 20 μM, 40 μM, 60 μM and 80 μM, for 72 hr with the DMSO or the CPE formulation. Each formulation was added to total 1% of the growth media (Minimal Essential Medium with L-glutamine supplemented with 10% fetal bovine serum, 1 mM sodium pyruvate, 1× non-essential amino acid solution, and 1,000 IU/mL penicillin/1,000 μg/mL streptomycin solution). Control cells were grown under the same conditions and were left untreated. After 72 hr of treatment or no treatment, the total number of cells and the number of live cells in each sample were counted, using the trypan blue exclusion method. The cell proliferation rate and the percentage of dead cells in each sample were analyzed. Results of this experiment are shown in FIG. 1, FIG. 2, and Tables 6 through 12.
FIG. 1 is a graphical representation of the ratio of the number of treated cells/number of untreated cells plotted against increasing concentrations of M4N in either the DMSO formulation or the CPE formulation for treatment of the C-33A cells and HeLa cells. FIG. 2 is a graphical representation of the percentage of dead cells plotted against increasing concentrations of M4N and in either DMSO formulation or the CPE formulation for treatment of the two cancer cell lines, C-33A and HeLa cells in culture.
Various lots of M4N were tested to show the effectiveness of the drug of different lots. HeLa cells were treated with increasing amounts of M4N: 0 μM, 20 μM, 40 μM, 60 μM and 80 μM, for 72 hr with the CPE formulation. Each formulation was added to total 1% of the growth media (Minimal Essential Medium with L-glutamine supplemented with 10% fetal bovine serum, 1 mM sodium pyruvate, 1× non-essential amino acid solution, and 1,000 IU/mL penicillin/1,000 μg/mL streptomycin solution). Control cells were grown under the same conditions and were left untreated. After 72 hr of treatment or no treatment, the total number of cells and the number of live cells in each sample were counted, using the trypan blue exclusion method. The cell proliferation rate and the percentage of dead cells in each sample were analyzed.

[1] = M4N 20 μM in CPE 25/30 formulation, 72 hr
[2] = M4N 20 μM in CPE 25/30 formulation, 72 hr, at 3 months
[3] = M4N 20 μM in CPE 33/27 formulation, 72 hr, time zero
[4] = M4N 20 μM in CPE formulation, 72 hr, at 3 months
[5] = M4N 20 μM in CPE formulation, 72 hr, at 9 months
[6] = M4N 20 μM in CPE formulation, 72 hr, at 12 months
[7] = M4N 20 μM in CPE formulation, 72 hr, comparison with CPE 25/30
[8] = M4N 20 μM in CPE formulation, 72 hr, time 0
[9] = M4N 20 μM in CPE formulation, 72 hr, time zero, comparison with CPE 33/27
[10] = M4N 20 μM in DMSO, 72 hr, at 9 months
[11] = M4N 20 μM in DMSO, 72 hr, at 12 months
[12] = M4N 20 μM in DMSO, 72 hr, time 0
[13] = M4N 40 μM in CPE 25/30 formulation, 72 hr
[14] = M4N 40 μM in CPE 25/30 formulation, 72 hr, at 3 months
[15] = M4N 40 μM in CPE 33/27 formulation, 72 hr, time zero
[16] = M4N 40 μM in CPE formulation, 72 hr, at 3 months
[17] = M4N 40 μM in CPE formulation, 72 hr, at 9 months
[18] = M4N 40 μM in CPE formulation, 72 hr, at 12 months
[19] = M4N 40 μM in CPE formulation, 72 hr, comparison with CPE 25/30
[20] = M4N 40 μM in CPE formulation, 72 hr, time 0
[21] = M4N 40 μM in CPE formulation, 72 hr, time zero, comparison with CPE 33/27
[22] = M4N 40 μM in DMSO, 72 hr, at 9 months
[23] = M4N 40 μM in DMSO, 72 hr, at 12 months
[24] = M4N 40 μM in DMSO, 72 hr, time 0
[25] = M4N 60 μM in CPE 25/30 formulation, 72 hr
[26] = M4N 60 μM in CPE 25/30 formulation, 72 hr, at 3 months
[27] = M4N 60 μM in CPE 33/27 formulation, 72 hr, time zero
[28] = M4N 60 μM in CPE formulation, 72 hr, at 3 months

Question: Which results are given for `COc1ccc(C[C@@H](C)[C@@H](C)Cc2ccc(OC)c(OC)c2)cc1OC` [Formulation M4N, meso-1,4-bis(3,4-dimethoxyphenyl)-2,3-dimethylbutane]?
Answer: cell death, share of the cell population (80 μM or […] M4N in CPE formulation): about 20%; cell death, share of the cell population (80 μM or […] M4N in DMSO formulation): about 40%; M4N sufficient to cause about a 50% inhibition in cell proliferation (CPE formulation, 72 hr): ~7.2 µg/mL; effectiveness of the drug of different lots (CPE formulation, lots EM1001 and EM1002): remains the same; % Dead Cells [1]: 9.4%; % Viability [1]: 90.7%; Proliferation Rate [1]: 0.34; % Dead Cells [2]: 11.9%; % Viability [2]: 88.1%; Proliferation Rate [2]: 0.39; % Dead Cells [3]: 10.9%; % Viability [3]: 89.2%; Proliferation Rate [3]: 0.43; % Dead Cells [4]: 9.0%; % Viability [4]: 91.0%; Proliferation Rate [4]: 0.39; % Dead Cells [5]: 31.3%; % Viability [5]: 68.7%; Proliferation Rate [5]: 0.24; % Dead Cells [6]: 3.3%; % Viability [6]: 96.8%; Proliferation Rate [6]: 0.74; % Dead Cells [7]: 6.6%; % Viability [7]: 93.5%; Proliferation Rate [7]: 0.33; % Dead Cells [8]: 4.4%; % Viability [8]: 95.6%; Proliferation Rate [8]: 0.52; % Dead Cells [9]: 11.9%; % Viability [9]: 88.1%; Proliferation Rate [9]: 0.35; % Dead Cells [10]: 10.7%; % Viability [10]: 89.3%; Proliferation Rate [10]: 0.19; % Dead Cells [11]: 12.6%; % Viability [11]: 87.4%; Proliferation Rate [11]: 0.23; % Dead Cells [12]: 9.9%; % Viability [12]: 90.1%; Proliferation Rate [12]: 0.25; % Dead Cells [13]: 11.0%; % Viability [13]: 89.1%; Proliferation Rate [13]: 0.31; % Dead Cells [14]: 13.4%; % Viability [14]: 86.6%; Proliferation Rate [14]: 0.32; % Dead Cells [15]: 13.6%; % Viability [15]: 86.4%; Proliferation Rate [15]: 0.19; % Dead Cells [16]: 16.5%; % Viability [16]: 83.5%; Proliferation Rate [16]: 0.09; % Dead Cells [17]: 27.2%; % Viability [17]: 72.8%; Proliferation Rate [17]: 0.10; % Dead Cells [18]: 5.0%; % Viability [18]: 95.0%; Proliferation Rate [18]: 0.21; % Dead Cells [19]: 23.4%; % Viability [19]: 76.7%; Proliferation Rate [19]: 0.08; % Dead Cells [20]: 9.4%; % Viability [20]: 90.6%; Proliferation Rate [20]: 0.28; % Dead Cells [21]: 25.9%; % Viability [21]: 74.2%; Proliferation Rate [21]: 0.14; % Dead Cells [22]: 8.8%; % Viability [22]: 91.2%; Proliferation Rate [22]: 0.14; % Dead Cells [23]: 13.7%; % Viability [23]: 86.4%; Proliferation Rate [23]: 0.04; % Dead Cells [24]: 13.2%; % Viability [24]: 86.8%; Proliferation Rate [24]: 0.25; % Dead Cells [25]: 22.8%; % Viability [25]: 77.3%; Proliferation Rate [25]: 0.12; % Dead Cells [26]: 23.1%; % Viability [26]: 76.9%; Proliferation Rate [26]: 0.11; % Dead Cells [27]: 29.3%; % Viability [27]: 70.7%; Proliferation Rate [27]: 0.10; % Dead Cells [28]: 43.1%; % Viability [28]: 56.9%
